Consider 14 molecules from US9872493B2, “Method for promoting plant growth” (SUMITOMO CHEMICAL COMPANY, LIMITED, priority 2012, dated 2018).

A value given as a limit tells only on which side of the number the result lay.

Experiment [1] deals with Rice (Variety: Nipponbare). As to the kind of experiment: Test for evaluating promotion of root growth by hydroponics of rice (Test Examples 1-3). The experiment is classed as in vivo. The method, then:
Rice (Variety: Nipponbare)
(§1) A DMSO solution, which contained one of the compounds 14, 18, 21, 23, 26, 28, 29, 30, 35, 36, 37, 39 and 40 of the present invention at a concentration of 100,000 ppm, was added to Hoagland hydroponic solution (Hoagland and Arnon, California Agricultural Experiment Station 1950 Circular 347 pp. 34) of ¼-fold concentration at a volume ratio of 1/10,000. In this manner, hydroponic solutions containing one of the compounds 14, 18, 21, 23, 26, 28, 29, 30, 35, 36, 37, 39 and 40 of the present invention at 10 ppm were prepared respectively. As an untreated control plot, a hydroponic solution obtained by adding DMSO to Hoagland hydroponic solution of ¼-fold concentration at a volume ratio of 1/10,000 was used.
Rice seeds were soaked in a 1% aqueous sodium hypochlorite solution for 10 minutes, then soaked in a 70% ethanol solution for surface sterilization, and then washed with distilled water. The sterilized seeds were soaked in a hydroponic solution containing the test compound described above at 10 ppm and incubated in a dark place for 3 days at 28° C. to perform treatment for hastening germination.
Thereafter, 30 ml of hydroponic solution containing the test compound at 10 ppm was dispensed in a plastic tube (diameter of 20 mm×height of 113 mm) of which the side was covered with cardboard to block light. A float prepared using a styrene board and vinyl mesh was floated, and the rice seeds that had undergone the treatment for hastening germination were placed on the float on the surface of the hydroponic solution. The seeds were cultivated for 3 days at 26° C., an illuminance of 4,000 lux of the top surface of the tube, a humidity of 50%, and a day length of 16 hours.
The nursery plants of rice obtained after cultivating were measured in terms of the length of seminal root by using WinRHIZO system (manufactured by Regent Instruments Inc). For each test plot, an average of the measured values of the seminal root of 4 or 5 individuals were determined.
as §1, with “compounds 7, 8, 9, 10, 12, 17, 20,” for “compounds 14, 18,”, “21, 25, 27,” for “21, 23, 26,”, “30, 34,” for “30,”, “37, 38,” for “37,”, “of 10,000” for “of 100,000”, “at 1” for “at 10”
Rice seeds were soaked in a 1% aqueous sodium hypochlorite solution for 10 minutes, then soaked in a 70% ethanol solution for surface sterilization, and then washed with distilled water. The sterilized seeds were soaked in a hydroponic solution containing the test compound described above at 1 ppm and incubated in a dark place for 3 days at 28° C. to perform treatment for hastening germination.
Thereafter, 30 ml of hydroponic solution containing the test compound at 1 ppm was dispensed in a plastic tube (diameter of 20 mm×height of 113 mm) of which the side was covered with cardboard to block light. A float prepared using a styrene board and vinyl mesh was floated, and the rice seeds that had undergone the treatment for hastening germination were placed on the float on the surface of the hydroponic solution. The seeds were cultivated for 3 days at 26° C., an illuminance of 4,000 lux of the top surface of the tube, a humidity of 50%, and a day length of 16 hours.
The nursery plants of rice obtained after cultivation were measured in terms of the length of seminal root by using WinRHIZO system (manufactured by Regent Instruments Inc). […]

The next experiment deals with Nicotiana benthamiana. As to the kind of experiment: Test for evaluating growth promotion under low-temperature stress by hydroponics of Nicotiana benthamiana (Test Examples 4-6). The note with it: 7 days at 1.5±1.0° C. low-temperature stress, then 3 days at 22° C., green leaf area vs untreated control, read-out: value of a relative leaf area (equation (1)); for relative green leaf area after low-temperature stress at 0.1 ppm: compound at 0.1 ppm; for relative green leaf area after low-temperature stress at 1 ppm: compound at 1 ppm; for relative green leaf area after low-temperature stress at 10 ppm: compound at 10 ppm. The experiment is classed as in vivo. On the procedure:
A DMSO solution, which contained one of the compounds 5, 14, 22, 23, 24, 25, 26, 28, 30, 31, 32, 33, 34, 35, 38, 39 and 40 of the present invention at a concentration of 10,000 ppm, was prepared. The DMSO solution of the compound of the present invention was added at a volume ratio of 1/1,000 to the Murashige•Scoog medium of a ½-fold concentration (a medium containing 2.3 g of mixed salts (manufactured by Wako Pure Chemical Industries, Ltd.), 200 mg of Myo-inositol (manufactured by Sigma-Aldrich Co. LLC.), 2 mg of nicotinic acid (manufactured by Wako Pure Chemical Industries, Ltd.), 2 mg of pyridoxine hydrochloride (manufactured by Wako Pure Chemical Industries, Ltd.), 20 mg of thiamine hydrochloride (manufactured by Wako Pure Chemical Industries, Ltd.), 20 g of sucrose (manufactured by Wako Pure Chemical Industries, Ltd.), and 1 g of MES (manufactured by DOJINDO LABORATORIES) per 1 L of water and having pH adjusted to 5.8), thereby preparing a medium containing the compound of the present invention at a concentration of 10 ppm.
Seeds of Nicotiana benthamiana were seeded in the 5 μL of the medium and cultured overnight at 22° C. Thereafter, 45 μL of the medium containing the compound of the present invention at a concentration of 10 ppm was added thereto, and the seeds are cultivated for 7 days at 22° C., an illuminance of 4,000 lux, and a day length of 16 hours, thereby the nursery plants raised from the Nicotiana benthamiana were treated with the compound.
Moreover, instead of the above medium a test plot, which was obtained by performing the same treatment by using a medium prepared by adding DMSO to the Murashige•Scoog medium of ½-fold concentration at a volume ratio of 1/1,000, was used as a control plot not treated with the compound.
The nursery plants of the Nicotiana benthamiana treated with the compound were subjected to low-temperature treatment by being cultivated for 7 days at 1.5±1.0° C., an illuminance of 2,000 lux, and a day length of 16 hours.
The nursery plants of the Nicotiana benthamiana having undergone the low-temperature stress treatment were cultivated for 3 days at 22° C., an illuminance of 4,000 lux, and a day length of 16 hours. Thereafter, the area of green leaf was quantified by Scanalyzer HTS (manufactured by LemnaTec GmbH). Moreover, the value of the control plot not treated with the compound that had not yet been subjected to the low-temperature stress treatment was measured in the same manner. A value of a relative leaf area was calculated based on the following equation (1), and if the value of a relative leaf area was 5 or greater, the compound was evaluated to have a mitigating effect. As a result of the evaluation, it was confirmed that when the plant was treated with one of the compounds 5, 14, 22, 23, 24, 25, 26, 28, 30, 31, 32, 33, 34, 35, 38, 39 and 40 of the present invention at 10 ppm, the value of a relative leaf area was 5 or greater, compared to the area of green leaf of the control plot not treated with compound. Accordingly, it was confirmed that the treatment using the compound of the present invention brings about a growth promotion effect. Relative leaf area=100*(a green area of a plot treated with the compound of the present invention−a green area of a control plot not treated with the compound of the present invention)/(a green area of a control plot not treated with the compound of the present invention that has not yet been subjected to low-temperature stress treatment−a green area of a control plot not treated with the compound of the present invention) Equation (1): […]
A DMSO solution, which contained one of the compounds 6, 7, 8, 11, 12, 15, 19, 23, 24, 25, 28, 30, 31, 33, 34, 36, 37, 38 and 39 of the present invention at a concentration of 1,000 ppm, was prepared. […]

As for `O=C(O)c1csc2ccc(C(F)(F)F)cc12` [Compound 13, 5-trifluoromethylbenzo[b]thiophene-3-carboxylic acid], the “length of seminal root compared with the untreated control plot (in words)” value in experiment [1] (0.1 ppm) is “obviously longer”. The relative green leaf area after low-temperature stress at 0.1 ppm with Nicotiana benthamiana is not below 5%.

Regarding `O=C(O)c1cccc2cc(C(F)(F)F)sc12` [Compound 9, 2-trifluoromethylbenzo[b]thiophene-7-carboxylic acid], in experiment [1] (1 ppm), the “length of seminal root compared with the untreated control plot (in words)” value is “obviously longer”. Moreover, in the experiment on Nicotiana benthamiana, the relative green leaf area after low-temperature stress at 0.1 ppm is not below 5%.

Consider `O=C(O)c1cccc2ccsc12` [Compound 6, benzo[b]thiophene-7-carboxylic acid], for which the “length of seminal root compared with the untreated control plot (in words)” value in experiment [1] (0.1 ppm) was “obviously longer”. Moreover, the relative green leaf area after low-temperature stress at 1 ppm with Nicotiana benthamiana was not below 5%.

For the molecule `CNC(=O)c1csc2cc(C(F)(F)F)ccc12` [Compound 31], in experiment [1] (0.1 ppm), the “length of seminal root compared with the untreated control plot (in words)” value is recorded as “obviously longer”. Besides, in the experiment with Nicotiana benthamiana, the relative green leaf area after low-temperature stress at 0.1 ppm was not below 5%, the relative green leaf area after low-temperature stress at 1 ppm is not below 5% and the relative green leaf area after low-temperature stress at 10 ppm was not below 5%.

Turning to `CNC(=O)c1csc2c(C(F)(F)F)cccc12` [Compound 38], in experiment [1] (0.1 ppm), the “length of seminal root compared with the untreated control plot (in words)” value was “obviously longer”. Moreover, the “length of seminal root compared with the untreated control plot (in words)” value in experiment [1] (1 ppm) is given as “obviously longer”. Also, in the experiment with Nicotiana benthamiana, the relative green leaf area after low-temperature stress at 1 ppm was not below 5% and the relative green leaf area after low-temperature stress at 10 ppm is not below 5%.

For `NC(=O)c1csc2c(C(F)(F)F)cccc12` [Compound 37], the “length of seminal root compared with the untreated control plot (in words)” value in experiment [1] (0.1 ppm), in experiment [1] (1 ppm) and in experiment [1] (10 ppm) was “obviously longer” throughout. Besides, in the experiment with Nicotiana benthamiana, the relative green leaf area after low-temperature stress at 1 ppm is not below 5%.

Turning to `NC(=O)c1cccc2ccsc12` [Compound 7, benzo[b]thiophene-7-carboxamide], the “length of seminal root compared with the untreated control plot (in words)” value in experiment [1] (1 ppm) is recorded as “obviously longer”. The relative green leaf area after low-temperature stress at 1 ppm in the experiment on Nicotiana benthamiana is not below 5%.

On to `O=C(Nc1ccccc1)c1csc2c(C(F)(F)F)cccc12` [Compound 39], for which the “length of seminal root compared with the untreated control plot (in words)” value in experiment [1] (0.1 ppm), in experiment [1] (1 ppm) and in experiment [1] (10 ppm) was “obviously longer” each time. For the same molecule, the relative green leaf area after low-temperature stress at 1 ppm in the experiment on Nicotiana benthamiana was not below 5%. The relative green leaf area after low-temperature stress at 10 ppm in the experiment with Nicotiana benthamiana was not below 5%.

`CCOC(=O)c1csc2c(C(F)(F)F)cccc12` [Compound 36]: the “length of seminal root compared with the untreated control plot (in words)” value in experiment [1] (0.1 ppm), in experiment [1] (1 ppm) and in experiment [1] (10 ppm) was “obviously longer” each time. In the experiment on Nicotiana benthamiana, the relative green leaf area after low-temperature stress at 0.1 ppm was not below 5%. Moreover, the relative green leaf area after low-temperature stress at 1 ppm with Nicotiana benthamiana was not below 5%.

Consider `O=C(NCc1ccccc1)c1c(C(F)(F)F)sc2ccccc12` [Compound 26], for which the “length of seminal root compared with the untreated control plot (in words)” value in experiment [1] (0.1 ppm) and in experiment [1] (10 ppm) was “obviously longer” in each case. For the same molecule, the relative green leaf area after low-temperature stress at 0.1 ppm with Nicotiana benthamiana is not below 5%. In addition, the relative green leaf area after low-temperature stress at 10 ppm with Nicotiana benthamiana is not below 5%.

In the case of `COC(=O)c1cccc2cc(C(F)(F)F)sc12` [Compound 10, methyl 2-trifluoromethylbenzo[b]thiophene-7-carboxylate], in experiment [1] (1 ppm), the “length of seminal root compared with the untreated control plot (in words)” value is “obviously longer”. For the same molecule, the relative green leaf area after low-temperature stress at 0.1 ppm with Nicotiana benthamiana is not below 5%.

`NC(=O)c1csc2cccc(C(F)(F)F)c12` [Compound 19]: the “length of seminal root compared with the untreated control plot (in words)” value in experiment [1] (0.1 ppm) was “obviously longer”. For the same molecule, the relative green leaf area after low-temperature stress at 1 ppm with Nicotiana benthamiana was not below 5%.

On to `COC(=O)c1csc2ccccc12` [Compound 12, methyl benzo[b]thiophene-3-carboxylate], for which the “length of seminal root compared with the untreated control plot (in words)” value in experiment [1] (1 ppm) was “obviously longer”. Also, in the experiment on Nicotiana benthamiana, the relative green leaf area after low-temperature stress at 1 ppm is not below 5%.

In the case of `COC(=O)c1csc2c(C(F)(F)F)cccc12` [Compound 35], the “length of seminal root compared with the untreated control plot (in words)” value in experiment [1] (0.1 ppm), in experiment [1] (1 ppm) and in experiment [1] (10 ppm) was “obviously longer” each time. Besides, the relative green leaf area after low-temperature stress at 0.1 ppm with Nicotiana benthamiana is not below 5%. Also, the relative green leaf area after low-temperature stress at 10 ppm in the experiment on Nicotiana benthamiana was not below 5%.
